Assay results taken from the OligoGym collection.
HELM strings list units from the 5' end as sugar, base in round brackets, then linkage (d deoxyribose, r ribose, m 2'-O-methyl, p phosphodiester). Strings are as the collection lists them; they lack the last nucleoside at the 3' end of the tested compound. [moe] = 2'-O-(2-methoxyethyl) (MOE); [sp] = phosphorothioate linkage; [m5C] = 5-methylcytosine

Biological target: GFAP
Assay: mouse, dose not given
Settings: ASO

| Substance | 3 h FOB score [score 0-7] |
| --- | --- |
| RNA1{[moe]([m5C])[sp].[moe](T)p.[moe](A)p.[moe](G)p.[moe](T)p.d([m5C])[sp].d(A)[sp].d(G)[sp].d([m5C])[sp].d([m5C])[sp].d(T)[sp].d(G)[sp].d(G)[sp].d(T)[sp].d(T)[sp].[moe](A)p.[moe](G)p.[moe]([m5C])[sp].[moe]([m5C])}$$$$ (last 3' nucleoside missing) | 2 |
| RNA1{[moe](G)[sp].[moe](T)p.[moe](G)p.[moe](T)p.[moe](A)p.d(T)[sp].d(T)[sp].d(A)[sp].d(G)[sp].d(G)[sp].d(A)[sp].d(T)[sp].d([m5C])[sp].d([m5C])[sp].d([m5C])[sp].[moe](A)p.[moe](T)p.[moe]([m5C])[sp].[moe](T)}$$$$ (last 3' nucleoside missing) | 2 |
| RNA1{[moe](G)[sp].[moe]([m5C])p.[moe](A)p.[moe](G)p.[moe](T)[sp].d(A)[sp].d(T)[sp].d(T)[sp].d(A)[sp].d([m5C])[sp].d([m5C])[sp].d(T)[sp].d([m5C])[sp].[moe](T)p.[moe](A)p.[moe]([m5C])[sp].[moe](T)}$$$$ (last 3' nucleoside missing) | 1 |
| RNA1{[moe](T)[sp].[moe](G)p.[moe](G)p.[moe](T)p.[moe](G)p.d([m5C])[sp].d(T)[sp].d(T)[sp].d(T)[sp].d(T)[sp].d(G)[sp].d([m5C])[sp].d([m5C])[sp].d([m5C])[sp].d([m5C])[sp].[moe]([m5C])p.[moe](T)p.[moe](G)[sp].[moe](T)}$$$$ (last 3' nucleoside missing) | 0 |
